In patent US10392404B2, “Compounds and compositions as kinase inhibitors” (NOVARTIS AG, priority 2014, dated 2019):

How the values were obtained:
b-Raf (V600E) = target: T1, b-Raf (V600E) (Homo sapiens, UniProt P15056, V600E); experiment: In vitro Raf activity determination (Alpha Screen, biotinylated kinase-dead MEK1 substrate), B-Raf; assay type: biochemical; details: b-Raf (V600E) approximately 4 pM; ATP 10 μM; pre-incubation 60 minutes; reaction 3 hours at room temperature
T1 construct: made in house
T1 sequence (P15056 whole entry V600E): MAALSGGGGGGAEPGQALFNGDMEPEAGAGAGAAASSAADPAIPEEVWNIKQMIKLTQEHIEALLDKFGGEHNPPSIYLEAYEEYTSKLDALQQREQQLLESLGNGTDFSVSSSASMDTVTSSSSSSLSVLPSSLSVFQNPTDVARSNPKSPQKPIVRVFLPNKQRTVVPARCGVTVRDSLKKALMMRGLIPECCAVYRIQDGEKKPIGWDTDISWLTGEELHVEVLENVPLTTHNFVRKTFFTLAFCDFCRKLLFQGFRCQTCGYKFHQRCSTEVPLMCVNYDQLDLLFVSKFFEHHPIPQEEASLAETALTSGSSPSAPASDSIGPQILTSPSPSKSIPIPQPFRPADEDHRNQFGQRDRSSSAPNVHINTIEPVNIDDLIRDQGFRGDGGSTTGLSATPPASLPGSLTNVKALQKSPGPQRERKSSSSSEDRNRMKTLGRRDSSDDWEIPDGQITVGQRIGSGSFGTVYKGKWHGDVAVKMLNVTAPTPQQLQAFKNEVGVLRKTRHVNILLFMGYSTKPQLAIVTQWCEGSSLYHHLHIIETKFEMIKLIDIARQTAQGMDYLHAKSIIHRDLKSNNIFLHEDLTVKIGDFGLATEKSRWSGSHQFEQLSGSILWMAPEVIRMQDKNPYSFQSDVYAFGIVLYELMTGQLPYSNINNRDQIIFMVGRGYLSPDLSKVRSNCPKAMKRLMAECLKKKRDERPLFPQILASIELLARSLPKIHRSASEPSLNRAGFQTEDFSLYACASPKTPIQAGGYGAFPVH
Outline: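 Activated b-Raf(V600E) (~4 pM) pre-incubated 60 min with compound and biotinylated kinase-dead (K97R) MEK1 (~10 nM), then reacted 3 h at room temperature with 10 μM ATP in 50 mM Tris pH 7.5, 15 mM MgCl2, 0.01% BSA, 1 mM DTT. Phospho-MEK detected by AlphaScreen; IC50 by non-linear regression.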

C-RAF = target: T2, C-RAF (Homo sapiens, UniProt P04049, Y340E/Y341E); experiment: In vitro Raf activity determination (Alpha Screen, biotinylated kinase-dead MEK1 substrate), C-Raf; assay type: biochemical; details: c-Raf approximately 4 nM; ATP 1 μM; pre-incubation 60 minutes; reaction 1 hour at room temperature
T2 construct: His tag (implied by nickel chromatography) (cleaved yes); StrepII tag (cleaved yes); made in house; host or cells: Sf9 insect cells (baculovirus), CRAF and h14-3-3 zeta co-expressed; MEK1 substrate from E. coli
T2 sequence (P04049 whole entry Y340E/Y341E): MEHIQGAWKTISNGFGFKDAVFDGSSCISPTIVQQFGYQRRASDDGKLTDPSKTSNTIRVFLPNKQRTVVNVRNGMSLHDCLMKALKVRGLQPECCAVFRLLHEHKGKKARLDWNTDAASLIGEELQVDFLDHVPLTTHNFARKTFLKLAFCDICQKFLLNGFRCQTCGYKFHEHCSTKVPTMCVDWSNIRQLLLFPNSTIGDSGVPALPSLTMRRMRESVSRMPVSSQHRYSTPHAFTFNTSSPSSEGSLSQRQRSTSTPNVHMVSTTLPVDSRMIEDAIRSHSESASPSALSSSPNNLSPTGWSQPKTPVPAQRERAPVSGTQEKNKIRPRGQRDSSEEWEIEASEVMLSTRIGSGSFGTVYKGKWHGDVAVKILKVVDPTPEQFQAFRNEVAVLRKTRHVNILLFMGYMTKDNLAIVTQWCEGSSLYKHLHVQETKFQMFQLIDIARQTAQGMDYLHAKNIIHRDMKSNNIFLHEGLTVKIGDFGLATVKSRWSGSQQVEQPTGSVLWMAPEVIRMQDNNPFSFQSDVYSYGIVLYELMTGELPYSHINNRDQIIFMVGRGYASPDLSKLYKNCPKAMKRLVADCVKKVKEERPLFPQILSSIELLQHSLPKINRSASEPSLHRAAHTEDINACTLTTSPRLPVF
T2 sequence (P63104 whole entry partner): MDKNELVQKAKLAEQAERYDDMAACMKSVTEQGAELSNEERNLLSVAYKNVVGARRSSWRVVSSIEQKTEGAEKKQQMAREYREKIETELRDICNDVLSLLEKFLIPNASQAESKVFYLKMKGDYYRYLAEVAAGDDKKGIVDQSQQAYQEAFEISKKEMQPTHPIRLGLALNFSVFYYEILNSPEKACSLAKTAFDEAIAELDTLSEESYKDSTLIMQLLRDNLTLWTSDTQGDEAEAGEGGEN
Outline: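 Full-length C-Raf carrying Y340E/Y341E, co-expressed with 14-3-3ζ in Sf9 cells, at approximately 4 nM, with approximately 10 nM biotinylated kinase-dead MEK1 (K97R) and 1 μM ATP, pH 7.5. Compound preincubated 60 min, reaction 1 hour at room temperature. Phospho-MEK read by AlphaScreen; IC50 by non-linear regression.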

| IC50 (b-Raf (V600E)) | IC50 (C-RAF) | Compound |
| --- | --- | --- |
| 7.18 nM | 0.876 nM | Cc1ccc(NC(=O)c2cc(C(C)(C)F)ccn2)cc1-c1cnc(N2CC(C)(O)C2)c(C#N)c1 [Example 244, N-(3-(5-cyano-6-(3-hydroxy-3-methylazetidin-1-yl)pyridin-3-yl)-4-methylphenyl)-4-(2-fluoropropan-2-yl)picolinamide] |
| 0.939 nM | 0.183 nM | Cc1ccc(NC(=O)c2ccnc(C3(C#N)CC3)c2)cc1-c1cnc(N2CC(C)(O)C2)c(C#N)c1 [Example 220, N-(3-(5-cyano-6-(3-hydroxy-3-methylazetidin-1-yl)pyridin-3-yl)-4-methylphenyl)-2-(1-cyanocyclopropyl) isonicotinamide] |
| 1.98 nM | 0.476 nM | Cc1ccc(NC(=O)c2ccnc(C(C)(C)C#N)c2)cc1-c1cnc(C2CCOCC2)c(C#N)c1 [Example 137, N-(3-(5-cyano-6-(tetrahydro-2H-pyran-4-yl)pyridin-3-yl)-4-methylphenyl)-2-(2-cyanopropan-2-yl)isonicotinamide] |
| 17.6 nM | 3.51 nM | Cc1ncc(NC(=O)c2ccnc(C(F)(F)F)c2)cc1-c1cnc(-c2c(C)nn(C)c2C)c(C#N)c1 [Example 112, N-(5′-cyano-2-methyl-6′-(1,3,5-trimethyl-1H-pyrazol-4-yl)-[3,3′-bipyridin]-5-yl)-2-(trifluoromethyl) isonicotinamide] |
| 4.18 nM | 0.925 nM | Cc1ncc(NC(=O)c2ccnc(C(F)F)c2)cc1-c1cnc(NC2CCOCC2)c(C#N)c1 [Example 171, N-(5′-cyano-2-methyl-6′-((tetrahydro-2H-pyran-4-yl)amino)-[3,3′-bipyridin]-5-yl)-2-(difluoromethyl) isonicotinamide] |
| 1.44 nM | 0.487 nM | Cc1ccc(NC(=O)c2ccnc(C(C)(C)O)c2)cc1-c1cnc(NC2CCOCC2)c(C#N)c1 [Example 168, N-(3-(5-cyano-6-((tetrahydro-2H-pyran-4-yl)amino)pyridin-3-yl)-4-methylphenyl)-2-(2-hydroxypropan-2-yl)isonicotinamide] |
| 12.1 nM | 3.16 nM | Cc1ncc(NC(=O)c2ccnc(C(C)(C)O)c2)cc1-c1cnc(NC2CCOCC2)c(C#N)c1 [Example 170, N-(5′-cyano-2-methyl-6′-((tetrahydro-2H-pyran-4-yl)amino)-[3,3′-bipyridin]-5-yl)-2-(2-hydroxypropan-2-yl)isonicotinamide] |
| 4.02 nM | 0.429 nM | CCCNc1ncc(-c2cc(NC(=O)c3cccc(C(F)(F)F)c3)ccc2C)cc1C#N [Example 39, N-(3-(5-cyano-6-(propylamino)pyridin-3-yl)-4-methylphenyl)-3-(trifluoromethyl) benzamide] |
| 5.8 nM | 0.712 nM | Cc1ncc(NC(=O)c2cccc(C(F)(F)F)c2)cc1-c1cnc(OCCO)c(C#N)c1 [Example 99, N-(5′-cyano-6′-(2-hydroxyethoxy)-2-methyl-[3,3′-bipyridin]-5-yl)-3-(trifluoromethyl) benzamide] |
| 1.46 nM | 0.247 nM | CCNc1ncc(-c2cc(NC(=O)c3cccc(C(F)(F)F)c3)ccc2C)cc1C#N [Example 23, N-(3-(5-cyano-6-(ethylamino)pyridin-3-yl)-4-methylphenyl)-3-(trifluoromethyl) benzamide] |
| 6.91 nM | 1.59 nM | Cc1ncc(NC(=O)c2ccnc(C(C)(C)O)c2)cc1-c1cnc(N2CCOCC2)c(C#N)c1 [Example 166, N-(5′-cyano-2-methyl-6′-morpholino-[3,3′-bipyridin]-5-yl)-2-(2-hydroxypropan-2-yl)isonicotinamide] |
| 6.15 nM | 0.636 nM | Cc1ncc(NC(=O)c2cc(C(C)C)on2)cc1-c1cnc(N(C)C)c(C#N)c1 [Example 269, N-(5′-cyano-6′-(dimethylamino)-2 methyl-[3,3′-bipyridin]-5-yl)-5-isopropylisoxazole-3-carboxamide] |
| 8.66 nM | 2.09 nM | Cc1ncc(NC(=O)c2ccnc(C(C)(C)C#N)c2)cc1-c1cnc(N2CCCC2)c(C#N)c1 [Example 73, N-(5′-cyano-2-methyl-6′-(pyrrolidin-1-yl)-[3,3′-bipyridin]-5-yl)-2-(2-cyanopropan-2-yl)isonicotinamide] |
| 13.4 nM | 4.06 nM | COCCNc1ncc(-c2cc(NC(=O)c3ccnc(C(C)(C)C#N)c3)cnc2C)cc1C#N [Example 198, N-(5′-cyano-6′-((2-methoxyethyl)amino)-2-methyl-[3,3′-bipyridin]-5-yl)-2-(2-cyanopropan-2-yl)isonicotinamide] |
| 1.33 nM | 0.227 nM | Cc1ncc(NC(=O)c2cccc(C(F)(F)F)c2)cc1-c1cnc(N2CCS(=O)(=O)CC2)c(C#N)c1 [Example 85, N-(5′-cyano-6′-(1,1-dioxidothiomorpho-lino)-2-methyl-[3,3′-bipyridin]-5-yl)-3-(trifluoromethyl) benzamide] |
| 1970 nM | 148 nM | Cc1nn(C)cc1C(=O)Nc1cnc(C)c(-c2cnc(N(C)C)c(C#N)c2)c1 [Example 264, N-(5′-cyano-6′-(dimethylamino)-2-methyl-[3,3′-bipyridin]-5-yl)-1,3-dimethyl-1H-pyrazole-4-carboxamide] |
| 0.477 nM | 0.158 nM | Cc1ccc(NC(=O)c2ccnc(C(F)(F)F)c2)cc1-c1cnc(N2CCOCC2)c(C#N)c1 [Example 62, N-(3-(5-cyano-6-morpholinopyridin-3-yl)-4-methylphenyl)-2-(trifluoromethyl) isonicotinamide] |
| 0.304 nM | 0.0559 nM | Cc1ccc(NC(=O)c2cccc(S(C)(=O)=O)c2)cc1-c1cnc(N2CCOCC2)c(C#N)c1 [Example 157, N-(3-(5-cyano-6-morpholinopyridin-3-yl)-4-methylphenyl)-(methylsulfonyl) benzamide] |
| 2.25 nM | 0.333 nM | Cc1ncc(NC(=O)c2cc(C(C)(F)F)ccn2)cc1-c1cnc(N2CCOCC2)c(C#N)c1 [Example 238, N-(5′-cyano-2-methyl-6′-morpholino-[3,3′-bipyridin]-5-yl)-4-(1,1-difluoroethyl) picolinamide] |
| 10.9 nM | 2.16 nM | Cc1ncc(NC(=O)c2cc(C3CC3)on2)cc1-c1cnc(N(C)C)c(C#N)c1 [Example 262, N-(5′-cyano-6′-(dimethylamino)-2-methyl-[3,3′-bipyridin]-5-yl)-5-cyclopropylisoxazole-3-carboxamide] |
| 27.2 nM | 9.28 nM | Cc1ncc(NC(=O)c2ccnc(C(F)(F)F)c2)cc1-c1cnc(Oc2ccccn2)c(C#N)c1 [Example 52, N-(5′-cyano-2-methyl-6′-(pyridin-2-yloxy)-[3,3′-bipyridin]-5-yl)-2-(trifluoromethyl) isonicotinamide] |
| 285 nM | 64 nM | Cc1ncc(NC(=O)c2ccnc(C(C)(C)C#N)c2)cc1-c1cnc(-n2ccccc2=O)c(C#N)c1 [Example 53, N-(3′-cyano-2″- methyl-2-oxo-2H-[1,2′:5′,3″- terpyridin]-5″-yl)-2 (2-cyanopropan-2-yl)isonicotinamide] |
| 2.4 nM | 0.377 nM | Cc1ccc(NC(=O)c2cccc(S(C)(=O)=O)c2)cc1-c1cnc(C2CCOCC2)c(C#N)c1 [Example 139, N-(3-(5-cyano-6-(tetrahydro-2H-pyran-4-yl)pyridin-3-yl)-4-methylphenyl)-3-(methylsulfonyl) benzamide] |
| 1.63 nM | 0.478 nM | Cc1ncc(NC(=O)c2ccnc(C(F)(F)F)c2)cc1-c1cnc(NC2CCOCC2)c(C#N)c1 [Example 173, N-(5′-cyano-2-methyl-6′-((tetrahydro-2H-pyran-4-yl)amino)-[3,3′-bipyridin]-5-yl)-2-(trifluoromethyl) isonicotinamide] |
| 3.18 nM | 0.42 nM | Cc1ccc(NC(=O)c2cc(C(C)(C)C#N)ccn2)cc1-c1cnc(N2CC(C)(O)C2)c(C#N)c1 [Example 232, N-(3-(5-cyano-6-(3-hydroxy-3-methylazetidin-1-yl)pyridin-3-yl)-4-methylphenyl)-4-(2-cyanopropan-2-yl)picolinamide] |
| 1.58 nM | 0.398 nM | COCCNc1ncc(-c2cc(NC(=O)c3ccnc(C(C)(C)C#N)c3)ccc2C)cc1C#N [Example 176, N-(3-(5-cyano-6-((2-methoxyethyl)amino)pyridin-3-yl)-4-methylphenyl)-2-(2-cyanopropan-2-yl)isonicotinamide] |
| 12.6 nM | 1.93 nM | Cc1ncc(NC(=O)c2ccnc(C(C)(C)C#N)c2)cc1-c1cnc(NC2COC2)c(C#N)c1 [Example 80, N-(5′-cyano-2-methyl-6′-(oxetan-3-ylamino)-[3,3′-bipyridin]-5-yl)-2-(2-cyanopropan-2-yl)isonicotinamide] |
| 1.18 nM | 0.158 nM | Cc1ccc(NC(=O)c2cc(C(C)C)on2)cc1-c1cnc(N(C)C)c(C#N)c1 [Example 258, N-(3-(5-cyano-6-(dimethylamino)pyridin-3-yl)-4-methylphenyl)-5-isopropylisoxazole-3-carboxamide] |
| 58.8 nM | 7.49 nM | Cc1ncc(NC(=O)c2ccnc(C(F)F)c2)cc1-c1cnc(N2CC(C)(O)C2)c(C#N)c1 [Example 182, N-(5′-cyano-6′-(3-hydroxy-3-methylazetidin-1-yl)-2-methyl-[3,3′-bipyridin]-5-yl)-2-(difluoromethyl) isonicotinamide] |
